# Reference: patent publication US9120804B2, “8-substituted 2-amino-[1,2,4] triazolo [1, 5-A] pyrazines as Syk tryrosine kinase inhibitors and GCN2 serin kinase inhibitors” (Merck Patent GmbH, priority 2012, dated 2015)
# Target: T1, SYK (Homo sapiens, UniProt P43405)
# T1 construct: 2.5 nM SYK, 400 nM Biotin-Aha-Aha-KEDPDYEWPSAKK
# Experiment: SYK flash plate assay (enzyme assay)
# Type: biochemical
# Procedure: The kinase assay is performed either as 384-well Flashplate assay (for e.g. Topcount measurement) or as 384-well Image-Flashplate assay (for LEADseeker measurement).
# 2.5 nM SYK, 400 nM Biotin-Aha-Aha-KEDPDYEWPSAKK
# and 10 μM ATP (spiked with 0.3 μCi 33P-ATP/well) are incubated in a total volume of 50 μl (60 mM Hepes, 10 mM MgCl2, 1.2 mM Dithiothreitol, 0.02% Brij35, 0.1% BSA, pH 7.5) with or without test compound for 1 hours at 30° C. The reaction is stopped with 25 μl 200 mM EDTA. After 30 Min at 30° C. the liquid is removed and each well washed thrice with 100 μl 0.9% sodium chloride solution. Non-specific reaction is determined in presence of […] Staurosporine. Radioactivity is measured with Topcount (when using Flashplates) or with LEADseeker (when using Image-Flashplates) respectively. Results (e.g. IC50-values) are calculated with program tools provided by the IT-department (e.g. Symyx Assay Explorer, Genedata Screener). In Vivo Assays CIA
row,IC50,Structure (SMILES)
1,< 100 nM,"CCC1(O)CCN(c2nccn3nc(Nc4ccc5c(c4)NC(=O)C5(C)C)nc23)CC1 [E44, 6-[8-(4-ethyl-4-hydroxy-piperidin-1-yl)-[1,2,4]triazolo[1,5-a]pyrazin-2-ylamino]-3,3-dimethyl-1,3-dihydro-indol-2-one]"
2,300 to 3000 nM,"CN1CCCC(Nc2nccn3nc(Nc4ccc5c(c4)NC(=O)C5(C)C)nc23)C1 (stereo not shown) [C107, 3,3-dimethyl-6-[8-(1-methyl-piperidin-3-ylamino)[1,2,4]triazolo[1,5-a]yrazin-2-ylamino]-1,3-dihydro-indol-2-one]"
3,3000 to 50000 nM,"CC1(C)C(=O)Nc2cc(Nc3nc4c(N5CCC(CO)C5)nccn4n3)ccc21 (stereo not shown) [E30, 6-[8-(3-hydroxymethyl-pyrrolidin-1-yl)-[1,2,4]triazolo[1,5-a]pyrazin-2-ylamino]-3,3-dimethyl-1,3-dihydro-indol-2-one]"
4,< 100 nM,"CC1(C)C(=O)Nc2cc(Nc3nc4c(N5CCC6(CCNC6)C5)nccn4n3)ccc21 (stereo not shown) [E87, 6-[8-(2,7-diaza-spiro[4.4]non-2-yl)-[1,2,4]triazolo[1,5-a]pyrazin-2-ylamino]-3,3-dimethyl-1,3-dihydro-indol-2-one]"
5,< 100 nM,"CC1(C)C(=O)Nc2cc(Nc3nc4c(N5CCCNCC5)nccn4n3)ccc21 [E68, 6-(8-[1,4]diazepan-1-yl-[1,2,4]triazolo[1,5-a]pyrazin-2-ylamino)-3,3-dimethyl-1,3-dihydro-indol-2-one]"
6,300 to 3000 nM,"CC1(C)C(=O)Nc2cc(Nc3nc4c(N[C@H]5CC[C@H](O)CC5)nccn4n3)ccc21 [C76, trans-6-[8-(4-hydroxy-cyclohexylamino)-[1,2,4]triazolo[1,5-a]pyrazin-2-ylamino]-3,3-dimethyl-1,3-dihydro-indol-2-one]"
7,300 to 3000 nM,"CC1(C)C(=O)Nc2cc(Nc3nc4c(N5C[C@@H]6C[C@H]5CN6)nccn4n3)ccc21 [C89, 6-[(1S,4S)-8-(2,5-diaza-bicyclo[2.2.1]hept-2-yl)-[1,2,4]triazolo[1,5-a]pyrazin-2-ylamino]-3,3-dimethyl-1,3-dihydro-indol-2-one]"
8,< 100 nM,"CC1(C)C(=O)Nc2cc(Nc3nc4c(-c5cnn(C6CCNCC6)c5)nccn4n3)ccc21 [E150, 3,3-dimethyl-6-[8-(1-piperidin-4-yl-1H-pyrazol-4-yl)-[1,2,4]triazolo[1,5-a]pyrazin-2-ylamino]-1,3-dihydro-indol-2-one]"
9,300 to 3000 nM,"CC1(C)C(=O)Nc2cc(Nc3nc4c(N(CCO)C5CCNCC5)nccn4n3)ccc21 [C93, 6-{8-[(2-hydroxy-ethyl)-piperidin-4-yl-amino]-[1,2,4]triazolo[1,5-a]pyrazin-2-ylamino}-3,3-dimethyl-1,3-dihydro-indol-2-one]"
10,< 100 nM,"CC1(C)C(=O)Nc2cc(Nc3nc4c(N[C@H]5C[C@@H](N)C5)nccn4n3)ccc21 [C98, 6-[8-(cis-3-amino-cyclobutylamino)-[1,2,4]triazolo[1,5-a]pyrazin-2-ylamino]-3,3-dimethyl-1,3-dihydro-indol-2-one]"
11,< 100 nM,"CC1(C)C(=O)Nc2cc(Nc3nc4c(N5CCC(C(N)=O)C5)nccn4n3)ccc21 (stereo not shown) [E3, 1-[2-(3,3-dimethyl-2-oxo-2,3-dihydro-1H-indol-6-ylamino)-[1,2,4]triazolo[1,5-a]pyrazin-8-yl]-pyrrolidine-3-carboxylic acid amide]"

# Continued, molecule first:
row,Structure (SMILES),IC50
1,"CC1(C)CCNc2cc(Nc3nc4c(N5CCC6(CC5)CNC(=O)O6)nccn4n3)ccc21 [E53, 8-[2-(4,4-dimethyl-1,2,3,4-tetrahydro-quinolin-7-ylamino)-[1,2,4]triazolo[1,5-a]pyrazin-8-yl]-1-oxa-3,8-diaza-spiro[4.5]decan-2-one]",< 100 nM
2,"COc1ccc(Nc2nc3c(-c4ccccc4-c4ccccc4)nccn3n2)cc1OC [C5, (8-Biphenyl-2-yl-[1,2,4]triazolo[1,5-a]pyrazin-2-yl)-(3,4-dimethoxy-phenyl)-amine]",100 to 300 nM
3,"CC1(C)C(=O)Nc2cc(Nc3nc4c(N5C[C@@H](O)C[C@H]5c5ccccc5)nccn4n3)ccc21 [E29, 6-[8-((2S,4S)-4-hydroxy-2-phenyl-pyrrolidin-1-yl)-[1,2,4]triazolo[1,5-a]pyrazin-2-ylamino]-3,3-dimethyl-1,3-dihydro-indol-2-one]",3000 to 50000 nM
4,"CN(CCc1ccccn1)c1nccn2nc(Nc3ccc4c(c3)NC(=O)C4(C)C)nc12 [E90, 3,3-dimethyl-6-{8-[methyl-(2-pyridin-2-yl-ethyl)-amino]-[1,2,4]triazolo[1,5-a]pyrazin-2-ylamino}-1,3-dihydro-indol-2-one]",300 to 3000 nM
5,"CC1(C)C(=O)Nc2cc(Nc3nc4c(N5C[C@H](CO)C[C@H]5c5ccccc5)nccn4n3)ccc21 (single isomer, unassigned) [E98, 6-[8-((trans2)-4-hydroxymethyl-2-phenyl-pyrrolidin-1-yl)-[1,2,4]triazolo[1,5-a]pyrazin-2-ylamino]-3,3-dimethyl-1,3-dihydro-indol-2-one]",100 to 300 nM
6,"CC1(C)CCCc2ccc(-c3nccn4nc(Nc5ccc6c(c5)NC(=O)C6(C)C)nc34)cc21 [E146, 6-[8-(8,8-dimethyl-5,6,7,8-tetrahydro-naphthalen-2-yl)-[1,2,4]triazolo[1,5-a]pyrazin-2-ylamino]-3,3-dimethyl-1,3-dihydro-indol-2-one]",300 to 3000 nM
7,"COc1cc(Nc2nc3c(N4CCN(C)CC4)nccn3n2)cc(OC)c1 [C46, (3,5-dimethoxy-phenyl)-[8-(4-methyl-piperazin-1-yl)-[1,2,4]triazolo[1,5-a]pyrazin-2-yl]-amine]",300 to 3000 nM
8,"CC1(C)C(=O)Nc2cc(Nc3nc4c(N5C[C@H](O)C[C@H]5c5ccccc5)nccn4n3)ccc21 [E24, 6-[8-((2S,4R)-4-hydroxy-2-phenyl-pyrrolidin-1-yl)-[1,2,4]triazolo[1,5-a]pyrazin-2-ylamino]-3,3-dimethyl-1,3-dihydro-indol-2-one]",3000 to 50000 nM
9,"COC1=CC2C=CN=C2C=C1Nc1nc2c(N3CCC4(CC3)CNC(=O)O4)nccn2n1 (stereo not shown) [E61, 8-[2-(5-methoxy-3aH-indol-6-ylamino)-[1,2,4]triazolo[1,5-a]pyrazin-8-yl]-1-oxa-3,8-diaza-spiro[4.5]decan-2-one]",3000 to 50000 nM
10,"CC1(C)C(=O)Nc2cc(Nc3nc4c(N5Cc6cn[nH]c6C5)nccn4n3)ccc21 [E32, 6-[8-(4,6-dihydro-1H-pyrrolo[3,4-c]pyrazol-5-yl)-[1,2,4]triazolo[1,5-a]pyrazin-2-ylamino]-3,3-dimethyl-1,3-dihydro-indol-2-one]",< 100 nM
11,"CC1(C)C(=O)Nc2cc(Nc3nc4c(N5CCc6nc(O)nc(O)c6C5)nccn4n3)ccc21 [E1, 6-[8-(2,4-dihydroxy-7,8-dihydro-5H-pyrido[4,3-d]pyrimidin-6-yl)-[1,2,4]triazolo[1,5-a]pyrazin-2-ylamino]-3,3-dimethyl-1,3-dihydro-indol-2-one]",< 100 nM
12,"CC1(C)CC(=O)Nc2cc(Nc3nc4c(N5CC[C@@]6(CC(=O)NC6=O)C5)nccn4n3)ccc21 [E48, (R)-7-[2-(4,4-dimethyl-2-oxo-1,2,3,4-tetrahydro-quinolin-7-ylamino)-[1,2,4]triazolo[1,5-a]pyrazin-8-yl]-2,7-diaza-spiro[4.4]nonane-1,3-dione]",< 100 nM
13,"CC1(C)C(=O)Nc2cc(Nc3nc4c(N5CCc6ccc(C(N)=O)cc6C5)nccn4n3)ccc21 [E128, 2-[2-(3,3-dimethyl-2-oxo-2,3-dihydro-1H-indol-6-ylamino)-[1,2,4]triazolo[1,5-a]pyrazin-8-yl]-1,2,3,4-tetrahydro-isoquinoline-7-carboxylic acid amide]",< 100 nM
14,"CC1(C)C(=O)Nc2cc(Nc3nc4c(N5CC(O)CC5c5ccccc5)nccn4n3)ccc21 (stereo not shown) [C79, 6-[8-(4-hydroxy-2-phenyl-pyrrolidin-1-yl)-[1,2,4]triazolo[1,5-a]pyrazin-2-ylamino]-3,3-dimethyl-1,3-dihydro-indol-2-one]",300 to 3000 nM
15,"CC1(C)C(=O)Nc2cc(Nc3nc4c(N5CC6(CCNC6)c6cc(Cl)ccc65)nccn4n3)ccc21 (stereo not shown) [E130, 6-[8-(5-Chloro-spiro[indole-3,3′-pyrrolidin]-1-yl)-[1,2,4]triazolo[1,5-a]pyrazin-2-ylamino]-3,3-dimethyl-1,3-dihydro-indol-2-one]",300 to 3000 nM
16,"CC1(C)C(=O)Nc2cc(Nc3nc4c(-c5cnn(CCO)c5)nccn4n3)ccc21 [E145, 6-{8-[1-(2-hydroxy-ethyl)-1H-pyrazol-4-yl]-[1,2,4]triazolo[1,5-a]pyrazin-2-ylamino)-3,3-dimethyl-1,3-dihydro-indol-2-one]",< 100 nM
17,"CC1(C)C(=O)Nc2cc(Nc3nc4c(-c5ccc6c(c5)OCCO6)nccn4n3)ccc21 [E142, 6-[8-(2,3-dihydro-benzo[1,4]dioxin-6-yl)-[1,2,4]triazolo[1,5-a]pyrazin-2-ylamino]-3,3-dimethyl-1,3-dihydro-indol-2-one]",< 100 nM
18,"NS(=O)(=O)c1ccc(Nc2nc3c(-c4ccccc4-c4ccccc4)nccn3n2)cc1 [C15, 4-(8-Biphenyl-2-yl-[1,2,4]triazolo[1,5-a]pyrazin-2-ylamino)-benzenesulfonamide]",3000 to 50000 nM
19,"CC1(C)C(=O)Nc2cc(Nc3nc4c(N5CCC6(CNC(=O)CO6)C5)nccn4n3)ccc21 (stereo not shown) [E120, 2-[2-(3,3-dimethyl-2-oxo-2,3-dihydro-1H-indol-6-ylamino)-[1,2,4]triazolo[1,5-a]pyrazin-8-yl]-6-oxa-2,9-diaza-spiro[4.5]decan-8-one]",300 to 3000 nM
20,"CC1(C)C(=O)Nc2cc(Nc3nc4c(-c5cccc(S(N)(=O)=O)c5)nccn4n3)ccc21 [C102, 3-[2-(3,3-dimethyl-2-oxo-2,3-dihydro-1H-indol-6-ylamino)-[1,2,4]triazolo[1,5-a]pyrazin-8-yl]-benzenesulfonamide]",< 100 nM
